Experimental findings from US20050004092A1, “Penem derivatives and antimicrobial agent containing the same” (DAIICHI SUNTORY PHARMA CO., LTD., priority 1995, published 2005) are described below.

The term MIC denotes the smallest concentration in the dilution series that meets the test's criterion for growth inhibition.

Common to all, as to assay: antibacterial activity (MIC), standard in vitro dilution test
Assay [1] has as its system MRSA 31 high-resist. (IPM resist.). The assay is classed as cell-based, Staphylococcus aureus. The conditions noted are these: test bacterium strain 10^5 cfu/ml; for MIC: Staphylococcus aureus, MRSA, read-out: MIC, MRSA 31 high-resist. (IPM resist.). The source says:
(§1) With respect to certain compounds (I) of the present invention, their general antibacterial activities and their antibacterial activities (MIC) against various methicillin-resistant strains of Staphylococcus aureus (methicillin-resistant Staphylococcus aureus: MRSA) were investigated. The results will be shown next.
(§2) Of the investigations, the general antibacterial activities were investigated by a standard in vitro dilution test.
(§3) As test bacteria, Staphylococcus aureus 209P JC-1, Escherichia coli NIHJ JC-2 and MRSAs were used.

For assay [2], the system named is MRSA 33 high-resist. (IPM resist.). The assay is classed as cell-based, Staphylococcus aureus. As to conditions: test bacterium strain 10^5 cfu/ml; for MIC: Staphylococcus aureus, MRSA, read-out: MIC, MRSA 33 high-resist. (IPM resist.).
Excerpt: as §1, §2, §3

In assay [3] the test system is Escherichia coli NIHJ JC-2 strain. The assay is classed as cell-based. As to conditions: for MIC: Escherichia coli, NIHJJC2, test bacterium strain 10^5 cfu/ml, read-out: MIC, Escherichia coli NIHJ JC-2 strain; for MIC, Escherichia coli NIHJ JC-2 strain: test bacterium strain 10^5 cfu/ml.
Excerpt: as §1, §2, §3

Assay [4] has as its system Staphylococcus aureus 209P JC-1 strain. It counts as cell-based. The conditions noted are these: test bacterium strain 10^5 cfu/ml; for MIC: Staphylococcus aureus, 209P, read-out: MIC, Staphylococcus aureus 209P JC-1 strain.
Excerpt: as §1, §2, §3

Converted amounts (≈) assume the structure as drawn.

Consider `CC[C@H](O)[C@@H]1C(=O)N2C(C(=O)O)=C(S[C@H]3CCN(c4ccncc4)C3)S[C@H]12` [Ex. 203], for which the MIC in assay [1] was found to be 3.13 µg/mL (≈ 7.68 µM); in assay [2] it was 3.13 µg/mL (≈ 7.68 µM); in assay [3], 0.78 µg/mL (≈ 1.91 µM); in assay [4], 0.05 µg/mL (≈ 0.123 µM).

For the molecule `CC[C@H](O)[C@@H]1C(=O)N2C(C(=O)O)=C(S[C@H]3CCN(Cc4ccccn4)C3)S[C@H]12` [Ex. 123, (5R,6R)-6-((S)-1-hydroxypropyl)-2-((S)-1-(2-pyridylmethyl)pyrrolidin-3-yl)thiopenem-3-carboxylic acid], the MIC in assay [1] stood at 6.25 µg/mL (≈ 14.8 µM); in assay [2], 6.25 µg/mL (≈ 14.8 µM); in assay [3] it was 3.13 µg/mL (≈ 7.43 µM); in assay [4], 0.2 µg/mL (≈ 0.474 µM).

On to `CC[C@H](O)[C@@H]1C(=O)N2C(C(=O)O)=C(SCc3ccncc3)S[C@H]12` [Ex. 224], for which the minimal inhibitory concentration (MIC) in assay [1] was 3.13 µg/mL (≈ 8.88 µM); in assay [2], 3.13 µg/mL (≈ 8.88 µM); in assay [3], 3.13 µg/mL (≈ 8.88 µM); in assay [4] it was 0.2 µg/mL (≈ 0.567 µM).

Regarding `CC[C@H](O)[C@@H]1C(=O)N2C(C(=O)O)=C(SC3CCN(C/C=C/c4ccccc4)C3)S[C@H]12` (stereo partly drawn) [Ex. 228], the minimum inhibitory concentration (MIC) in assay [1] was 3.13 µg/mL (≈ 7.01 µM); in assay [2], 3.13 µg/mL (≈ 7.01 µM); in assay [3], 12.5 µg/mL (≈ 28 µM); in assay [4] it was 0.05 µg/mL (≈ 0.112 µM).

Take `CC[C@H](O)[C@@H]1C(=O)N2C(C(=O)O)=C(S[C@H]3CCN(c4ccccn4)C3)S[C@H]12` [Ex. 204]: the minimum inhibitory concentration (MIC) in assay [1] was found to be 3.13 µg/mL (≈ 7.68 µM); in assay [2] it was 3.13 µg/mL (≈ 7.68 µM); in assay [3] it was 6.25 µg/mL (≈ 15.3 µM); in assay [4], 0.1 µg/mL (≈ 0.245 µM).

With `CC[C@H](O)[C@@H]1C(=O)N2C(C(=O)O)=C(Sc3nc(-c4ccccc4)cs3)S[C@H]12` [Ex. 152, (5R,6R)-6-((S)-1-hydroxypropyl)-2-(4-phenylthiazol-2-yl)thiopenem-3-carboxylic acid], the MIC in assay [1] amounted to 3.13 µg/mL (≈ 7.44 µM); in assay [2] it was 3.13 µg/mL (≈ 7.44 µM); in assay [3], 50 µg/mL (≈ 119 µM); in assay [4], 0.05 µg/mL (≈ 0.119 µM).

With `CC[C@H](O)[C@@H]1C(=O)N2C(C(=O)O)=C(Sc3ccccc3)S[C@H]12` [Ex. 151, (5R,6R)-6-((S)-1-hydroxypropyl)-2-phenylthiopenem-3-carboxylic acid], the MIC in assay [1] was determined as 6.25 µg/mL (≈ 18.5 µM); in assay [2] it was 6.25 µg/mL (≈ 18.5 µM); in assay [3], 25 µg/mL (≈ 74.1 µM); in assay [4], 0.1 µg/mL (≈ 0.296 µM).

For the molecule `CC[C@H](O)[C@@H]1C(=O)N2C(C(=O)O)=C(SCCNC(=N)c3ccccc3)S[C@H]12` [Ex. 132, (5R,6R)-2-(2-(α-iminobenzyl)-aminoethyl)thio-6-((S)-1-hydroxypropyl)penem-3-carboxylic acid], the minimum inhibitory concentration (MIC) was 6.25 µg/mL (≈ 15.3 µM) in assay [1], 6.25 µg/mL (≈ 15.3 µM) in assay [2], 1.56 µg/mL (≈ 3.83 µM) in assay [3] and 0.1 µg/mL (≈ 0.245 µM) in assay [4].

As for `CC[C@H](O)[C@]1(C(=O)O)C(=O)N2C=C(S[C@H]3CCN(Cc4ccccc4)C3)S[C@@H]21` [Ex. 44, (5R,6R)-2-((S)-1-benzylpyrrolidin-3-yl)thio-6-((S)-1-hydroxypropyl)penem-6-carboxylic acid], the MIC stood at 3.13 µg/mL (≈ 7.44 µM) in assay [1], 3.13 µg/mL (≈ 7.44 µM) in assay [2], 3.13 µg/mL (≈ 7.44 µM) in assay [3] and 0.1 µg/mL (≈ 0.238 µM) in assay [4].

On to `CC[C@H](O)[C@@H]1C(=O)N2C(C(=O)O)=C(SC3CCc4cccnc43)S[C@H]12` (stereo partly drawn) [Ex. 231], for which the “MIC, MRSA 31 high-resist. (IPM resist.)” value in assay [1] amounted to 1.56 µg/mL (≈ 4.12 µM). Further, the “MIC, MRSA 33 high-resist. (IPM resist.)” value in assay [2] is 1.56 µg/mL (≈ 4.12 µM). In assay [3], the “MIC, Escherichia coli NIHJ JC-2 strain” value stood at 3.13 µg/mL (≈ 8.27 µM). Moreover, the MIC in assay [4] was 0.1 µg/mL (≈ 0.264 µM).

For the molecule `CC[C@H](O)[C@@H]1C(=O)N2C(C(=O)O)=C(SCCn3cccc3)S[C@H]12` [Ex. 147, (5R,6R)-6-((S)-1-hydroxypropyl)-2-(2-(1-pyrrolyl)ethyl)thiopenem-3-carboxylic acid], the minimal inhibitory concentration (MIC) came out at 3.13 µg/mL (≈ 8.83 µM) in assay [1], 3.13 µg/mL (≈ 8.83 µM) in assay [2], 6.25 µg/mL (≈ 17.6 µM) in assay [3] and 0.2 µg/mL (≈ 0.564 µM) in assay [4].

As for `CC[C@H](O)[C@@H]1C(=O)N2C(C(=O)O)=C(SC3CCCN(Cc4ccccc4)C3)S[C@H]12` (stereo partly drawn) [Ex. 125*^4], the MIC in assay [1] amounted to 6.25 µg/mL (≈ 14.4 µM); in assay [2], 6.25 µg/mL (≈ 14.4 µM); in assay [3], 12.5 µg/mL (≈ 28.8 µM); in assay [4] it was 0.2 µg/mL (≈ 0.46 µM).

For `CC[C@H](O)[C@@H]1C(=O)N2C(C(=O)O)=C(S[C@H]3CCN(CC(=O)c4ccc(C)cc4)C3)S[C@H]12` [Ex. 113, (5R,6R)-6-((S)-1-hydroxypropyl)-2-((S)-1-(2-oxo-2-p-tolylethyl)pyrrolidin-3-yl)-thiopenem-3-carboxylic acid], the MIC in assay [1] came out at 6.25 µg/mL (≈ 13.5 µM); in assay [2], 6.25 µg/mL (≈ 13.5 µM); in assay [3] it was 0.39 µg/mL (≈ 0.843 µM); in assay [4], 0.1 µg/mL (≈ 0.216 µM).

In the case of `CC[C@H](O)[C@@H]1C(=O)N2C(C(=O)O)=C(S[C@H]3CCN(C(C)=N)C3)S[C@H]12` [Ex. 103, (5R,6R)-2-((S)-1-(1-iminoethyl)-pyrrolidin-3-yl)thio-6-((S)-1-hydroxypropyl)-penem-3-carboxylic acid], the MIC in assay [1] stood at 3.13 µg/mL (≈ 8.43 µM); in assay [2], 3.13 µg/mL (≈ 8.43 µM); in assay [3], 0.39 µg/mL (≈ 1.05 µM); in assay [4], 0.1 µg/mL (≈ 0.269 µM).

Regarding `C=CCN1CCC(SC2=C(C(=O)O)N3C(=O)[C@@H]([C@@H](O)CC)[C@H]3S2)C1` (stereo partly drawn) [Ex. 17, (5R,6R)-2-(1-allyl-3-pyrrolidine)-thio-6-((S)-1-hydroxypropyl)penem-3-carboxylic acid], the “MIC, MRSA 31 high-resist. (IPM resist.)” value in assay [1] is 3.13 µg/mL (≈ 8.45 µM). In assay [2], the “MIC, MRSA 33 high-resist. (IPM resist.)” value worked out at 3.13 µg/mL (≈ 8.45 µM). Also, in assay [3], the “MIC, Escherichia coli NIHJ JC-2 strain” value came to 0.39 µg/mL (≈ 1.05 µM). Also, the “MIC, Staphylococcus aureus 209P JC-1 strain” value in assay [4] is 0.10 µg/mL (≈ 0.27 µM).

`CC[C@H](O)[C@@H]1C(=O)N2C(C(=O)O)=C(S[C@H]3CCN(c4ccc(NC(C)=N)cc4)C3)S[C@H]12` [Ex. 257]: the minimal inhibitory concentration (MIC) amounted to 3.13 µg/mL (≈ 6.77 µM) in assay [1], 1.56 µg/mL (≈ 3.37 µM) in assay [2], 12.5 µg/mL (≈ 27 µM) in assay [3] and 0.05 µg/mL (≈ 0.108 µM) in assay [4].

Turning to `CC[C@H](O)[C@@H]1C(=O)N2C(C(=O)O)=C(SC3CCN(C4CC4)C3)S[C@H]12` (stereo partly drawn) [Ex. 235], the MIC in assay [1] turned out to be 6.25 µg/mL (≈ 16.9 µM); in assay [2] it was 6.25 µg/mL (≈ 16.9 µM); in assay [3], 0.78 µg/mL (≈ 2.11 µM); in assay [4] it was 0.1 µg/mL (≈ 0.27 µM).

As for `CC[C@H](O)[C@@H]1C(=O)N2C(C(=O)O)=C(SC3CCN(C4CCCC4)C3)S[C@H]12` (stereo partly drawn) [Ex. 227], the MIC turned out to be 6.25 µg/mL (≈ 15.7 µM) in assay [1], 6.25 µg/mL (≈ 15.7 µM) in assay [2], 0.78 µg/mL (≈ 1.96 µM) in assay [3] and 0.1 µg/mL (≈ 0.251 µM) in assay [4].

For the molecule `CC[C@H](O)[C@@H]1C(=O)N2C(C(=O)O)=C(SCc3ccc(Cl)c(Cl)c3)S[C@H]12` [Ex. 236], the MIC stood at 1.56 µg/mL (≈ 3.71 µM) in assay [1], 1.56 µg/mL (≈ 3.71 µM) in assay [2], 50 µg/mL (≈ 119 µM) in assay [3] and 0.1 µg/mL (≈ 0.238 µM) in assay [4].

As for `CC[C@H](O)[C@@H]1C(=O)N2C(C(=O)O)=C(S[C@H]3CCN(C[C@@H](O)c4ccccc4)C3)S[C@H]12` [Ex. 107, (5R,6R)-6-((S)-1-hydroxypropyl)-2-(1-((S)-2-hydroxy-2-phenylethyl)pyrrolidin-3-yl)thiopenem-3-carboxylic acid], the MIC in assay [1] was found to be 6.25 µg/mL (≈ 13.9 µM); in assay [2], 6.25 µg/mL (≈ 13.9 µM); in assay [3], 1.56 µg/mL (≈ 3.46 µM); in assay [4], 0.1 µg/mL (≈ 0.222 µM).

As to `CC[C@H](O)[C@@H]1C(=O)N2C(C(=O)O)=C(S[C@H]3CCN(C4Cc5ccccc5C4)C3)S[C@H]12` [Ex. 214], the MIC came out at 6.25 µg/mL (≈ 14 µM) in assay [1], 3.13 µg/mL (≈ 7.01 µM) in assay [2], 6.25 µg/mL (≈ 14 µM) in assay [3] and 0.1 µg/mL (≈ 0.224 µM) in assay [4].
